The values that follow come from ChEMBL document CHEMBL1128934, “Nonpeptide glycoprotein IIB/IIIA inhibitors. 12. Potent and orally active centrally constrained thieno[2,3-c]pyridones” (Bioorg Med Chem Lett, 1996).

Each structure is given as a SMILES string.

The species entered for the test is Homo sapiens. Put plainly: Compound was evaluated for inhibition of ex vivo ADP mediated platelet aggregation of human gel filtered platelets. It is filed as functional.
In the case of `O=C(NCc1ccccc1)N[C@@H](CNC(=O)c1cc2c(s1)CCN(CCC1CCNCC1)C2=O)C(=O)O`, inhibition was half-maximal at 25 nM (IC50).

For `O=C(O)CCNC(=O)c1ccc2c(c1)C(=O)N(CCC1CCNCC1)C2`, the IC50 – broadly, the point on the concentration scale where inhibition reaches its midpoint – came out at 25 nM.

Consider `CCCCS(=O)(=O)N[C@@H](CNC(=O)c1cc2c(s1)CCN(CCC1CCNCC1)C2=O)C(=O)O`, for which the IC50 was 8 nM.

Regarding `O=C(O)CCNC(=O)c1cc2c(s1)CCN(CCC1CCNCC1)C2=O`, 150 nM corresponded to half-maximal inhibition (IC50).

In turn, `O=C(NC[C@H](NS(=O)(=O)c1ccccc1)C(=O)O)c1cc2c(s1)CCN(CCC1CCNCC1)C2=O` returned an IC50 of 7 nM.

Turning to `C[C@H](CC(=O)O)NC(=O)c1cc2c(s1)CCN(CCC1CCNCC1)C2=O`, the IC50 turned out to be 220 nM.

Regarding `O=C(NC[C@H](NS(=O)(=O)c1cccnc1)C(=O)O)c1cc2c(s1)CCN(CCC1CCNCC1)C2=O`, half-maximal inhibition (IC50) required 13 nM.

`CCCCS(=O)(=O)N[C@@H](CNC(=O)c1csc2c1C(=O)N(CCC1CCNCC1)CC2)C(=O)O` came in with a half-inhibitory concentration (IC50) of 33000 nM.

`O=C(O)CCCC(=O)c1cc2c(s1)CCN(CCC1CCNCC1)C2=O` had an IC50 of 260 nM.
